Assay [1] concerns A549 (human lung adenocarcinoma). The assay is described as follows: Cytotoxicity assay (CellTiter-Glo), A549. Format: cell-based. Conditions: 72 h, A549 cells, three days culture, rounded to 1 significant figure. On the procedure:
(§1) The cell lines A549 (human lung adenocarcinoma), OVCAR-3 (human ovarian carcinoma), HL60 (human promyelocytic leukemia), DLD1 (human colon adenocarcinoma) and HCT116 (human colon carcinoma) were obtained from the American Type Culture Collection, Manassas, Va., U.S.A. All products were used in accordance with manufacturer's directions. The histone phosphorylation (p-H3) assay was conducted in duplicate and the cytotoxicity assays were conducted in triplicate, in each case with solvent control.
(§2) Log-phase cells were trypsinized, collected by centrifugation, and resuspended in a small volume of fresh medium, and the density of viable cells was determined following Trypan Blue staining. Cells were diluted in fresh media, the test compounds (concentrations between 0.1 μM and 200 μM, dissolved in DMSO, 50 μL) added immediately after dilution to achieve a final DMSO concentration of 0.5%, then the suspensions added at 150 μL/well to 96-well plates, and incubated overnight to allow attachment in the case of adherent cells. The cells were cultured for three days (about three doubling times). The cells were then collected by centrifugation, and 100 μL of the culture supernatant was replaced by the CellTiter-Glo reagent. After incubation for 15 minutes at room temperature, the plate was read with a luminometer. […] The table gives cytotoxicity IC50s in μM, rounded to 1 significant figure.
(In general: In ATP-based viability assays light output follows the ATP content of the culture.)

Assay [2] deals with P388 and P388/ADR (doxorubicin-resistant) cells. The assay is described as follows: Cross-resistance, cytotoxicity in P388 and P388/ADR cells. In kind it is cell-based, mouse. Conditions: cytotoxicity in P388/ADR (doxorubicin-resistant) versus P388 cells. On the procedure: Compounds 2A, 9A, and 12A were tested for cross-resistance in the P388 (mouse leukemia) cell line, by assaying its cytotoxicity in both P388 and P388/ADR (doxorubicin-resistant) cells. […] Several of the more cytotoxic compounds of formula A were tested and found not to be substrates for P-glycoprotein, an efflux pump commonly associated with multidrug-resistance in cancer cells.

Assay [3] concerns tubulin. Description: Inhibition of tubulin polymerization, cell-free fluorescence assay. Format: biochemical.
Assay [4] concerns OVCAR-3 (human ovarian carcinoma). Description: Cytotoxicity assay (CellTiter-Glo), OVCAR-3. In kind it is cell-based. The settings on record: 72 h, OVCAR-3 cells, three days culture, rounded to 1 significant figure. On the procedure:
as §1, §2

Assay [5] relates to DLD1 (human colon adenocarcinoma). The assay is described as follows: Cytotoxicity assay (CellTiter-Glo), DLD1. Format: cell-based. Conditions: DLD-1, 72 h, DLD1 cells, three days culture, rounded to 1 significant figure. On the procedure:
as §1, §2

Assay [6] relates to HL60 (human promyelocytic leukemia). The assay is described as follows: Cytotoxicity assay (CellTiter-Glo), HL-60. Format: cell-based. Conditions: 72 h, HL-60 cells, three days culture, rounded to 1 significant figure. On the procedure: as §1, §2
Assay [7] has as its system HCT116 (human colon carcinoma). Description: Cytotoxicity assay (CellTiter-Glo), HCT116. Format: cell-based. The settings on record: HCT-116, 72 h, HCT116 cells, three days culture, rounded to 1 significant figure. On the procedure:
as §1, §2

For assay [8], the system named is HL60 (human promyelocytic leukemia) xenograft. The assay is described as follows: HL60 xenograft assay, oral administration. The settings on record: Mus musculus, HL-60, po, nu/nu mice, 200 mg/Kg by gavage once/day days 1-5 and 8-10, measured the day after the last day of treatment (In vivo Example 3), read-out: inhibition of tumor growth compared to vehicle. Format: in vivo. On the procedure:
Male athymic nu/nu mice, 6-8 weeks old (about 20 g), were implanted subcutaneously in the right fore flank with about 1×10^7 cells of the HL60 (human promyelocytic leukemia) line that had been grown in antibiotic-free medium for at least two passages. About 6 days after tumor implantation, when the tumor weight was about 50-250 mg, the mice were assigned to treatment groups. Test compounds were suspended at 20 mg/mL in 0.55 wt. % aqueous carboxymethylcellulose. Groups of mice were treated with compounds 2A, 9A, and 12A at 200 mg/Kg by gavage once/day on days 1-5 and 8-10 from the start of treatment, with vehicle control. Tumor growth inhibition was measured on the last day of treatment.
The experiment was conducted generally as described in In vivo Example 1. Groups of mice were treated with compounds 5A, 6A, 7A, 8A, and 10A at 200 mg/Kg by gavage once/day on days 1-5 and 8-10 from the start of treatment, with vehicle control. Tumor growth inhibition was measured the day after the last day of treatment.

Data on 37 compounds can be found in patent US8410163B2, “Substituted 4-amino-5-benzoyl-2-(phenylamino)thiophene-3-carbonitriles and substituted 4-amino-5-benzoyl-2-(phenylamino)thiophene-3-carboxamides as tubulin polymerization inhibitors” (Telik, Inc., priority 2009, dated 2013).

`COc1ccc(Nc2sc(C(=O)c3ccc(OCCN(C)C)cc3)c(N)c2C#N)cc1` [Compound 39A] gave an IC50 in assay [1] of 2000 nM.
On to `COc1cccc2c1C(=O)c1c(O)c3c(c(O)c1C2=O)C[C@@](O)(C(=O)CO)C[C@@H]3O[C@H]1C[C@H](N)[C@H](O)[C@H](C)O1` [doxorubicin], for which the resistance ratio in assay [2] turned out to be 260 fold.
For the compound `COc1ccccc1C(=O)c1sc(Nc2ccc3c(c2)OCO3)c(C#N)c1N` [Compound 21A], the IC50 in assay [1] is 200 nM. The “inhibition of tubulin polymerization (cell-free)” value in assay [3] is reported as “inhibition of tubulin polymerization”.
In the case of `COc1ccc(C(=O)c2sc(Nc3ccc(OC)c(OC)c3)c(C#N)c2N)cc1` [Compound 28A], 700 nM corresponded to half-maximal inhibition in assay [1] (IC50).
Take `N#Cc1c(Nc2ccc3c(c2)OCO3)sc(C(=O)c2cccc(Cl)c2)c1N` [Compound 35A]: the IC50 in assay [1] turned out to be 1000 nM.
`CCN(CC)c1ccc(C(=O)c2sc(Nc3ccc(OC)c(OC)c3)c(C#N)c2N)cc1` [Compound 11A] displayed an IC50 in assay [1] of 50 nM.
In the case of `CCOc1ccc(Nc2sc(C(=O)c3ccc(Cl)cc3)c(N)c2C#N)cc1` [Compound 4A], the IC50 in assay [4] was 30 nM; in assay [5], 30 nM; in assay [1], 20 nM; in assay [6], 40 nM; in assay [7], 90 nM.
As to `COc1ccc(Nc2sc(C(=O)c3ccc(Cl)cc3)c(N)c2C(N)=O)cc1` [Compound 1A, 4-amino-5-(4-chlorobenzoyl)-2-[(4-methoxyphenyl)amino]thiophene-3-carboxamide], the IC50 in assay [4] came to 10 nM; in assay [5], 7 nM; in assay [1], 10 nM; in assay [6], 10 nM; in assay [7], 10 nM.
On to `N#Cc1c(Nc2ccc3c(c2)OCO3)sc(C(=O)c2ccc(F)cc2)c1N` [Compound 33A], for which, in assay [1], the midpoint of inhibition, the IC50, lay at 1000 nM.
In assay [1], `N#Cc1cccc(C(=O)c2sc(Nc3ccc4c(c3)OCO4)c(C#N)c2N)c1` [Compound 34A] had an IC50 of 1000 nM.
For the compound `Cc1ccc(Nc2sc(C(=O)c3ccc(Cl)cc3)c(N)c2C#N)cc1` [Compound 14A], the IC50 was 100 nM in assay [1], 70 nM in assay [6] and 80 nM in assay [7]. The “inhibition of tubulin polymerization (cell-free)” value in assay [3] is “inhibition of tubulin polymerization”.
For the compound `COc1ccc(Nc2sc(C(=O)c3ccc(Br)cc3)c(N)c2C#N)cc1` [Compound 3A], the IC50 in assay [1] was 20 nM.
With `COc1ccc(Nc2sc(C(=O)c3ccc(OC)cc3)c(N)c2C(N)=O)cc1` [Compound 8A], the inhibition in vivo at 200 mg/kg in assay [8] came to 10%. The IC50 in assay [4] was 10 nM; in assay [5] it was 7 nM; in assay [1], 40 nM; in assay [6] it was 30 nM.
Compound `N#Cc1c(Nc2ccc3c(c2)OCO3)sc(C(=O)c2cccc(Br)c2)c1N` [Compound 41A] had an IC50 in assay [1] of 2000 nM.
Compound `N#Cc1c(Nc2ccc(F)cc2)sc(C(=O)c2ccc(Cl)cc2)c1N` [Compound 38A] had an IC50 in assay [1] of 2000 nM.
For the compound `Cc1ccc(C(=O)c2sc(Nc3ccc4c(c3)OCO4)c(C#N)c2N)cc1` [Compound 19A], the IC50 in assay [1] turned out to be 200 nM.
Turning to `CCN(CC)c1ccc(C(=O)c2sc(Nc3ccc(OC)cc3OC)c(C#N)c2N)cc1` [Compound 26A], the IC50 in assay [1] is 500 nM.
`COc1ccc(C(=O)c2sc(Nc3ccc(OC)cc3OC)c(C#N)c2N)cc1` [Compound 32A]: the IC50 in assay [1] was determined as 1000 nM.
For the compound `COc1ccc(C(=O)c2sc(Nc3ccc4c(c3)OCO4)c(C#N)c2N)cc1OC` [Compound 16A], the IC50 in assay [1] came to 100 nM; in assay [6] it was 60 nM.
As to `N#Cc1c(Nc2ccc3c(c2)OCO3)sc(C(=O)c2ccc(Cl)cc2)c1N` [Compound 24A], the IC50 in assay [1] came to 300 nM; in assay [6] it was 80 nM.
For the compound `N#Cc1c(Nc2ccc([N+](=O)[O-])cc2)sc(C(=O)c2ccc(Cl)cc2)c1N` [Compound 37A], the IC50 in assay [1] was 2000 nM.
Same read-out and setting: as for `COC(=O)c1ccc(Nc2sc(C(=O)c3ccc(Cl)cc3)c(N)c2C#N)cc1` [Compound 30A], the figure is 1000 nM.
For the compound `COc1ccc(C(=O)c2sc(Nc3ccc4c(c3)OCO4)c(C#N)c2N)cc1` [Compound 10A], the inhibition in vivo at 200 mg/kg in assay [8] stood at 67%. Moreover, the IC50 in assay [4] was 40 nM; in assay [5], 30 nM; in assay [1], 40 nM; in assay [6], 40 nM.
`COc1ccc(Nc2sc(C(=O)c3ccc(Cl)cc3)c(N)c2C#N)cc1OC` [Compound 5A]: the inhibition in vivo at 200 mg/kg in assay [8] is 45%. Besides, the IC50 in assay [4], in assay [5], in assay [1], in assay [6] and in assay [7] was 20 nM throughout.
`COc1cccc(C(=O)c2sc(Nc3ccc4c(c3)OCO4)c(C#N)c2N)c1` [Compound 25A] had an IC50 in assay [1] of 500 nM.
Consider `CCOc1ccc(Nc2sc(C(=O)c3ccc(Cl)cc3)c(N)c2C(N)=O)cc1` [Compound 13A], for which the IC50 came to 60 nM in assay [1] and 30 nM in assay [6].
In the case of `CN(C)CCOc1ccc(Nc2sc(C(=O)c3ccc(Cl)cc3)c(N)c2C#N)cc1` [Compound 36A], the IC50 in assay [1] amounted to 1000 nM.
Consider `N#Cc1c(Nc2ccc3c(c2)OCO3)sc(C(=O)c2ccc(Br)cc2)c1N` [Compound 23A], for which half-maximal inhibition in assay [1] (IC50) required 300 nM.
For `NC(=O)c1c(Nc2ccc3c(c2)OCO3)sc(C(=O)c2ccc(Cl)cc2)c1N` [Compound 27A, 4-amino-2-(1,3-benzodioxol-5-ylamino)-5-(4-chlorobenzoyl)thiophene-3-carboxamide], the IC50 in assay [4] is 300 nM; in assay [1], 600 nM; in assay [6] it was 200 nM; in assay [7] it was 600 nM.
Regarding `COc1cc2c(c(OC)c1OC)-c1ccc(OC)c(=O)cc1[C@@H](NC(C)=O)CC2` [colchicine], the resistance ratio in assay [2] was 70 fold.
Still for that read-out and setting: as for `CC[C@]1(O)C[C@@H]2CN(CCc3c([nH]c4ccccc34)[C@@](C(=O)OC)(c3cc4c(cc3OC)N(C)[C@H]3[C@@](O)(C(=O)OC)[C@H](OC(C)=O)[C@]5(CC)C=CCN6CC[C@]43[C@@H]65)C2)C1` [vinblastine], the figure is 50 fold.
On to `CCOc1ccc(Nc2sc(C(=O)c3ccc(OC)cc3OC)c(N)c2C#N)cc1` [Compound 6A, 4-amino-5-(2,4-dimethoxybenzoyl)-2-[(4-ethoxyphenyl)amino]thiophene-3-carbonitrile], for which the inhibition in vivo at 200 mg/kg in assay [8] amounted to 89%. Further, the results for the IC50 in assay [1], in assay [6] and in assay [7] were 30 nM, 50 nM and 30 nM, respectively.
As for `N#Cc1ccc(C(=O)c2sc(Nc3ccc4c(c3)OCO4)c(C#N)c2N)cc1` [Compound 20A], the midpoint of inhibition in assay [1], the IC50, lay at 200 nM.
Regarding `CCOc1ccc(Nc2sc(C(=O)c3ccc(OC)cc3)c(N)c2C#N)cc1` [Compound 17A], the IC50 in assay [1] and in assay [6] was 100 nM throughout.
The compound `COc1ccc(Nc2sc(C(=O)c3ccc(OC)cc3OC)c(N)c2C#N)c(OC)c1` [Compound 22A] had an IC50 in assay [1] of 200 nM.
In assay [1], `CC(C)c1ccc(Nc2sc(C(=O)c3ccc(Cl)cc3)c(N)c2C#N)cc1` [Compound 29A] returned an IC50 of 800 nM.
With `N#Cc1c(Nc2ccc(C(F)(F)F)cc2)sc(C(=O)c2ccc(Cl)cc2)c1N` [Compound 31A], the IC50 in assay [1] came to 1000 nM.

The term IC50 denotes the concentration at which inhibition is half-maximal. Low readings indicate inhibition by little substance, high ones a need for much substance.
